Legend:
[1] = 101.33 kPa, Liquid
[2] = xn = mol fraction of the nth substance listed; conditions: 101.33 kPa, Liquid

CC(C)CO [2-methyl-1-propanol]
[1]
Conditions	mass density [kg/m3]	viscosity [mPa·s]
288.15 K	805.47	4.805
298.15 K	797.37	3.435
308.15 K	790.1	2.508
318.15 K	781.99	1.87

CCCCCl [1-chlorobutane] + CC(C)CO
[2]
Conditions	mass density [kg/m3]	viscosity [mPa·s]
288.15 K, x2 = 0.0369	888.52	–
288.15 K, x2 = 0.0769	885.16	–
288.15 K, x2 = 0.1003	–	0.511
288.15 K, x2 = 0.1526	878.94	–
288.15 K, x2 = 0.1993	–	0.568
288.15 K, x2 = 0.2287	872.74	–
288.15 K, x2 = 0.2853	868.15	–
288.15 K, x2 = 0.2979	–	0.654
288.15 K, x2 = 0.3791	860.52	–
288.15 K, x2 = 0.3954	–	0.784
288.15 K, x2 = 0.4421	855.33	–
288.15 K, x2 = 0.496	–	0.948
288.15 K, x2 = 0.5564	845.76	–
288.15 K, x2 = 0.5739	844.3	–
288.15 K, x2 = 0.5936	–	1.198
288.15 K, x2 = 0.625	839.91	–
288.15 K, x2 = 0.6843	834.73	–
288.15 K, x2 = 0.6894	–	1.57
288.15 K, x2 = 0.7309	830.64	–
288.15 K, x2 = 0.7517	828.8	–
288.15 K, x2 = 0.7555	828.45	–
288.15 K, x2 = 0.7567	828.35	–
288.15 K, x2 = 0.7923	–	2.196
288.15 K, x2 = 0.849	819.9	–
288.15 K, x2 = 0.8912	–	3.098
288.15 K, x2 = 0.9196	813.2	–
288.15 K, x2 = 0.9806	807.26	–
298.15 K, x2 = 0.1003	–	0.454
298.15 K, x2 = 0.1993	–	0.499
298.15 K, x2 = 0.2979	–	0.567
298.15 K, x2 = 0.3954	–	0.663
298.15 K, x2 = 0.496	–	0.787
298.15 K, x2 = 0.5936	–	0.97
298.15 K, x2 = 0.6894	–	1.23
298.15 K, x2 = 0.7923	–	1.669
298.15 K, x2 = 0.8912	–	2.284
308.15 K, x2 = 0.1003	–	0.408
308.15 K, x2 = 0.1006	861.12	–
308.15 K, x2 = 0.1959	853.68	–
308.15 K, x2 = 0.1993	–	0.445
308.15 K, x2 = 0.277	847.47	–
308.15 K, x2 = 0.2979	–	0.497
308.15 K, x2 = 0.3894	838.94	–
308.15 K, x2 = 0.3954	–	0.574
308.15 K, x2 = 0.4895	831.33	–
308.15 K, x2 = 0.496	–	0.663
308.15 K, x2 = 0.5863	823.9	–
308.15 K, x2 = 0.5936	–	0.801
308.15 K, x2 = 0.6894	–	0.986
308.15 K, x2 = 0.6914	815.7	–
308.15 K, x2 = 0.7923	–	1.295
308.15 K, x2 = 0.7941	807.44	–
308.15 K, x2 = 0.8912	–	1.724
308.15 K, x2 = 0.8989	798.78	–
318.15 K, x2 = 0.0905	850.62	–
318.15 K, x2 = 0.1003	–	0.369
318.15 K, x2 = 0.1869	843.28	–
318.15 K, x2 = 0.1993	–	0.397
318.15 K, x2 = 0.2712	837.05	–
318.15 K, x2 = 0.2979	–	0.44
318.15 K, x2 = 0.3772	829.29	–
318.15 K, x2 = 0.3954	–	0.498
318.15 K, x2 = 0.4806	821.73	–
318.15 K, x2 = 0.496	–	0.567
318.15 K, x2 = 0.5812	814.29	–
318.15 K, x2 = 0.5936	–	0.682
318.15 K, x2 = 0.6819	806.85	–
318.15 K, x2 = 0.6894	–	0.808
318.15 K, x2 = 0.7816	799.34	–
318.15 K, x2 = 0.7923	–	1.025
318.15 K, x2 = 0.8896	791.03	–
318.15 K, x2 = 0.8912	–	1.33

Source: the NIST ThermoML archive (doi:10.1021/je0496140)
